From US6482827B1, “Matrix metalloproteinase inhibitors” (Pharmacia & Upjohn S.p.A., priority 1997, dated 2002)
Values after ≈ are worked out from the molar mass of the structure shown.

Tests used:
[1] = PK parameters in rats, iv route; details: rat, in vivo, 10-15 mg/kg
Method: As a further example, Table 3 reports clearance and AUC values measured after intravenous administration to rats of a […] of some representative compounds of the present invention.

Aqueous solubility = format: physicochemical; details: water; 25° C., Conditions B
[2] = target: T1, Human collagenase (MMP-1) (Homo sapiens, UniProt P03956); assay: Biochemical assay (Protocol A), Ki at steady state, MMP-1; details: preincubation, 37° C., pH=7.4, read-out: Ki at steady state (Ki*) for inhibition of MMP-1
T1 sequence (P03956 101-269): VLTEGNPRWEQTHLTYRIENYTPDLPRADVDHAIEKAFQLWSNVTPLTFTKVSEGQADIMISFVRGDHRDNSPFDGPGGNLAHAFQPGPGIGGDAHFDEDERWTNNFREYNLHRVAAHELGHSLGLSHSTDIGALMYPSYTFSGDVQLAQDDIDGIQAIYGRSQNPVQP
Method: (§1) Human gelatinase-A (MMP-2) was obtained as pro-enzyme (72 kDa) and was activated with 1 mM 4-aminophenylmercuric acetate for 30 min at 37° C. immediately prior to use. Human stromelysin-1-255 (MMP-3) was obtained as a recombinant pro-enzyme isolated from E. coli and activated by heat (1 h, 55° C.).
(§2) The substrate was the commercial quenched-fluorescence peptide Mca-Pro-Leu-Gly-Leu-Dpa-Ala-Arg-NH2, that is (7-methoxycoumarin4-yl)Acetyl-Pro-Leu-Glv-Leu-(3-[2,4-dinitrophenyl]-L-2,3-diamino-propionyl)-Ala-Arg-NH2 (C. G. Knight et al., FEBS Lett.296:263, 1992). The enzymes cleave at the Gly-Leu bond, removing the internally quenching Dpa group. Release of the highly fluorescent peptide Mca-Pro-Leu was followed fluorimetrically at 37° C. using a Perkin Elmer LS-50 Fluorescence Spectrophotometer fitted with a thermostatted four position stirring cell changer. The excitation wavelength was set at 326 nm (bandwidth 5 nm) and the emission at 392 nm (bandwidth 20 nm). Km values of this substrate for the three MMP's is 70 μM or more (Knight et al., reference above). Substrate concentration was 2 μM in the tests, so that we could approximate to unit the term (1+[substrate]/KM) in calculations. The substrate was stable for over 60 minutes in the assay conditions, giving no appreciable increment of fluorescence. Full response was adjusted against 200 nM Mca-Pro-Leu-OH (the released fluorescent peptide) and the instrument was calibrated in the range 0-100 nM Mca-Pro-Leu-OH, corresponding to 0-5% extent of hydrolysis of the 2 μM substrate. The aqueous assay buffer was 50 mM Tris/HCl pH=7.4 containing 0.15 M NaCl, 10 mM CaCl2, 0.01 mM ZnCl2 and 0.05% Brij 35. The concentration of the activated enzyme was determined by titration against representative inhibitors described in the literature and synthesized in house: Roche Ro31-9790 (N. G. Knebel et al., J. Chromatogr. B 673:213, 1995) for MMP-1, and Celltech CT-1418 (compound 1 in S. K. Chander, J. Pharm. Sci. 84:404, 1995) for MMP-2 and MMP-3. Enzyme concentrations in the tests were set at 1.0 nM for MMP-1, 0.04 nM for MMP-2, and 3.0 nM for M-3. Under our assay conditions, we measured keat/KM values of 26900, 669000 and 9740 1/(M×s) for MMP-1, MMP-2 and MMP-3, respectively. All the three enzymes were found stable for over three hours in the assay conditions.
(§3) The inhibition constant for compounds of the present invention was measured at steady state (Ki*; see J. F. Morrison and C. T. Walsh, Adv. Enzymol. Relat. Areas Mol. Biol. 61:201, 1988), upon preincubation experiment, by measuring V0, the initial rate in the absence of inhibitor, and Vs, the steady-state velocity, at different concentrations of inhibitors in the region of their enzyme-inhibitor dissociation constants.
(§4) On a routine basis, 1.94 mL of assay buffer was pre-heated at 37° C. in a vial, 0.02 mL of inhibitor in DMSO (or DMSO only), and 0.02 ml of 100 nM MMP-1 or 4 nM MMP-2 or 300 nM MMP-3 were added, mixed, and the vial was held at 37° C. for 5-180 minutes. Then 0.02 ml of 0.2 mM substrate was added, mixed and transferred into a pre-heated cell. The sample was allowed to equilibrate in the cuvette for 3-5 min at 37° C. against small changes in temperature and changes in the enzyme-inhibitor equilibria related to addition of substrate. After that, the linear increase of fluorescence was monitored over 3-5 min, and the slope (Vo or Vs) was obtained. Inhibitor concentrations were varied to collect data over Vs/Vo ratio ranging from 0.05 to 0.95. The values of Ki* were calculated by nonlinear weighted regression to the tight-binding equation according to Morrison and Walsh above:
(§5) Vs/Vo=[1/(2×Et)]×SQR[(Ki*+It−Et)^2+4×Ki*×Et]−(Ki*+It−Et)
(§6) wherein Et is the total enzyme concentration, and It is the total inhibitor concentration. The following Table I lists Ki* obtained for some representative examples: […]

[3] = target: T2, Human gelatinase-A (MMP-2) (Homo sapiens, UniProt P08253); assay: Biochemical assay (Protocol A), Ki at steady state, MMP-2; details: preincubation, 37° C., pH=7.4, read-out: Ki at steady state (Ki*) for inhibition of MMP-2
T2 sequence (P08253 110-660): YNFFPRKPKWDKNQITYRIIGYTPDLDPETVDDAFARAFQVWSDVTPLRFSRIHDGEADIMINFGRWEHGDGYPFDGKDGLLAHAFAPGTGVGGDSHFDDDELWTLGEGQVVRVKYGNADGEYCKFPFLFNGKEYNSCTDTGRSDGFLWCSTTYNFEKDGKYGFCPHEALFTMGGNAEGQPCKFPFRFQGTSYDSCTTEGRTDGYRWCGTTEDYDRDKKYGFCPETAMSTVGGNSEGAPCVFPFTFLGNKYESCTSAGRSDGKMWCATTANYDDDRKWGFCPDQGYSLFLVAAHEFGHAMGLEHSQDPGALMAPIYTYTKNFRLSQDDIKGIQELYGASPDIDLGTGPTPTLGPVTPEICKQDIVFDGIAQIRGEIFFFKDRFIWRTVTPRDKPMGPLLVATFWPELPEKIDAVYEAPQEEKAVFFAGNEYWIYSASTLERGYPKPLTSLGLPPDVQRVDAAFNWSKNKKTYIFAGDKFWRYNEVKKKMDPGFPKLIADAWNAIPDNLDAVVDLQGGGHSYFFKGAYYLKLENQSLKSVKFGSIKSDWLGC
Method: as §1, §2, §3, §4, §5, §6

[4] = PK parameters, oral route, cynomolgus monkey; format: in vivo; details: plasma, 10-15 mg/kg
Method: (§7) As an additional example, Table 4 reports the maximum plasma concentration (Cmax) and oral bioavailability (% F; calculated from dose-normalised ratio of oral to i.v. mean AUC values) after oral administration to rats or cynomolgus monkeys of a […] of some representative compounds of the present invention.

[5] = PK parameters, oral route, rat; format: in vivo; details: plasma, 10-15 mg/kg
Method: as §7

[6] = target: T3, Human stromelysin-1-255 (MMP-3) (Homo sapiens, UniProt P08254); assay: Biochemical assay (Protocol A), Ki at steady state, MMP-3; details: preincubation, 37° C., pH=7.4, read-out: Ki at steady state (Ki*) for inhibition of MMP-3
T3 construct: host or cells: E. coli
Method: as §1, §2, §3, §4, §5, §6

stifle joints = assay: Animal model of tolerability with MMP inhibitors, histological evaluation of stifle joints; format: in vivo; details: rats, intraperitoneal, 10 consecutive days, daily doses of 150 mg/kg or less
Excerpt: Although MMPs have been recognized as drug targets for at least 20 years, and potent MMP inhibitors described by formula (A) have been disclosed since 1986 or before (e.g., see J. P. Dickens et al., U.S. Pat. No. 4,599,361), no drug of this type has arrived at the market yet. This is not because of questions about the therapeutic potential of MMP inhibitors, but because of problems of “peptide-based hydroxamates”, such as aqueous solubility, metabolic stability, and other desirable properties, oral bioavailability in particular (e.g., J. R. Porter, reference above; J. Hodgson, “Remodelling MMPIs”, Biotechnology 13:554-557, 1995). For example, it is well known that most “peptide-based hydroxamates” of general formula (A) are rapidly glucuronidated, oxidized to the carboxylic acid, and excreted in the bile (e.g., see J. Singh et al., Bioorg. Med. Chem. Lett. 5:337-342, 1995, and other references above). Finally, another type of problem of the known inhibitors described by general formula (A) may be one of tolerability. […] We have extended these observations by developing an animal model of tolerability with MMP inhibitors (S. Castellino et al., unpublished), involving intraperitoneal administration of the latter in rats for 10 consecutive days, and histological evaluation of stifle joints at the end of treatment. […]

[7] = clinic; cited from earlier work
[8] = dose-normalised ratio of oral to i.v. mean AUC, read-out: % F (oral bioavailability)

T3 sequence (P08254 100-255 limits assumed): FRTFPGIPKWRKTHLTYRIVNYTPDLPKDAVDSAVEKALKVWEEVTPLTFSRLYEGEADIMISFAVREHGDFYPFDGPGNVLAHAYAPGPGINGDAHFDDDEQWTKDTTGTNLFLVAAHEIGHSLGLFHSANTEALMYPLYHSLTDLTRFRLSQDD

## N[C@H](C(=O)NO)[C@@H](CC1CCCC1)C(=O)N1CCN(Cc2ccc3c(c2)OCO3)CC1 [Example 27, (3S-Amino-2R-cyclopentylmethyl-4-hydroxyamino)succinyl-(4-piperonyl)piperazinamide]
[1]
  AUC: 11300 ng·h/mL
  clearance: 23 mL/min/kg
Aqueous solubility
  solubility: 7100 µg/mL (≈ 16.4 mM)
[2]
  Ki: 6.5 nM
[3]
  Ki: 20 nM
[4]; [8]
  bioavailability: 34%
[4]; read-out: Cmax
  Cmax: 3130 ng/mL
[5]; [8]
  bioavailability: 58%
[5]; read-out: Cmax
  Cmax: 7910 ng/mL
[6]
  Ki: 240 nM

## CNC(=O)[C@@H](NC(=O)[C@@H](CC(=O)NO)CC(C)C)C(C)(C)C [Ro31-9790]
Stifle joints
  Histological findings in stifle joints: hypertrophic fibrosis of stifle ligaments, interstitial hypertrophic fibrosis of skeletal muscles, hypertrophic fibroplasia of the periostium and synovium, and chondrosysplasia and decreased endochondrial ossification of the ephyseal plate

## CNC(=O)[C@@H](NC(=O)[C@H](CC(C)C)[C@H](O)C(=O)NO)C(C)(C)C [marimastat]
[7]
  Tolerability in humans: muscoloskeletal problems
